For the test, the system named is PrASNase (glutaminase-free recombinant L-asparaginase). The test can be described thus: Nesslerization. The class given is biochemical, Metapseudomonas resinovorans. To be noted: pH 8.6, 37°C; 500 nM enzyme; 2-20 mM substrate.

Broadly, the Km is the substrate concentration at which the rate is half of its maximum. As to `NC(=O)C[C@H](N)C(=O)O` [L-asparagine], the Michaelis constant (Km) was determined as 9.49 mM.

The values above are taken from paper doi:10.1101/2023.01.01.522448v1 (biorxiv, 2023).
